From US11661419B2, “Benzimidazole derivative compounds and uses thereof” (Pfizer Inc., priority 2019, dated 2023)

Key:
[1] = target: Tropomyosin receptor kinase A (TRKA, NTRK1) (Homo sapiens (Human), UniProt P04629); test: TRKA (NTRK1) enzyme Z'-LYTE assay; type: biochemical; conditions: arithmetic mean of count n; test compound 1 uM, ATP 1 mM
Method: Tropomyosin Receptor Kinase a (TRKA) Activity, % Inhibition
TRKA, also known as neurotrophic tyrosine kinase receptor type 1 (NTKR1) activity was determined by measuring the effect of a test compound on the activity against the NTRK1 enzyme using the ThermoFisher Z'-LYTE Assay fluorescence-based coupled enzyme format (www.thermofisher.com/selectscreen). […] The resulting effect value for the tested compound was compared to the assay controls to determine the % inhibition (%).

[2] = system: IL-2 in activated CD4+ human T-cells; test: IL-2 inhibition in supernatants from activated CD4+ human T-cells (cisbio HTRF); type: cell-based; conditions: T-cell; geometric mean of count n; CD3/CD28-expanded human CD4+ T cells stimulated with ImmunoCult, 20 to 24 hrs
Method: IL-2-Inhibition Activity, IC50 (uM)
IL-2 inhibition activity in supernatants from activated CD4+ human T-cells was determined by measuring the effect of a test compound on the activity using the cisbio HTRF™ technology.
Human CD4+ T cells were activated with CD3/CD28 for 3 days and expanded for an additional 4-6 days (7 to 9 days total). On day 0, frozen CD4+ T cells were thawed, treated with CD3/CD28 Dynabeads, and incubated at 37° C./5% CO2. On day 3, the beads were removed, and the cells were diluted to 5×10^5 cells/cm^2, placed in G-Rex10 flask, and incubated at 37° C./5% CO2. On day 7 to day 9 the cells were removed from the G-Rex flasks, counted and diluted back to 1×10^6 cells/ml in standard tissue culture flask.
The expanded CD4+ T-cells were centrifuged at 300×g for 10 minutes and resuspended to 0.5 million cells per ml (30,000 cells/well). 60 μl of CD4+ T cells were added per well to a 384 well plate containing 0.1 μL of varying concentrations of test compound in DMSO. The plates were incubated for 15 min at 37° C./5% CO2. 20 μl of diluted ImmunoCult™ ([…] Technologies, 1:12.5 in T cell assay media) were added to all wells of the plate (1:50 final assay concentration). The plates were incubated for an additional 20 to 24 hrs at 37° C./5% CO2. The plates were centrifuged at 300×g for 10 minutes. 16 μL of supernatant was removed and combined with 4 μl of IL-2 HTRF Abs. (cisbio kit). Plates were incubated for 3 hours at RT and read with an EnVision plate reader at 665 nm and 615 nm wavelengths.

Chain of Tropomyosin receptor kinase A (TRKA, NTRK1) (P04629 33-796): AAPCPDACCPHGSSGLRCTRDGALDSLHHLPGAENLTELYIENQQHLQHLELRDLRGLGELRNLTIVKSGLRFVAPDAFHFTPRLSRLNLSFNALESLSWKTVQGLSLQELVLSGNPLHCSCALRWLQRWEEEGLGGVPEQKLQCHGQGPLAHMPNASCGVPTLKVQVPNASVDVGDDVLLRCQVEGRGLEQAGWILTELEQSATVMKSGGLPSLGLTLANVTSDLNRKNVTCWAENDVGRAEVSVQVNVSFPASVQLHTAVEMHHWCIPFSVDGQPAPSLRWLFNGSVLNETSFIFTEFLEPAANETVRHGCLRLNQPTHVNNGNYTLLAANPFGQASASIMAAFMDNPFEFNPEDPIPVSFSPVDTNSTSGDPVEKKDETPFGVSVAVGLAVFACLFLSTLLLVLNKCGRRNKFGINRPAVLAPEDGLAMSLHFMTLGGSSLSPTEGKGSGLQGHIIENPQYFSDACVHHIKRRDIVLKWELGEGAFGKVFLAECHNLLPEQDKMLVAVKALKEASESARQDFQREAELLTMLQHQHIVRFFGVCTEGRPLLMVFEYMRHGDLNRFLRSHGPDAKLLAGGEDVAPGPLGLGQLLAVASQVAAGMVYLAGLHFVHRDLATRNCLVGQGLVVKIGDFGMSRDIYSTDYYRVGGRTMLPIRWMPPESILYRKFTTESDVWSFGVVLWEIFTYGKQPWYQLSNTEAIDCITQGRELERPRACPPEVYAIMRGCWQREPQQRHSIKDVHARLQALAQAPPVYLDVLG

| SMILES | inhibition at 1 µM [1] [%] | IC50 [2] [µM] |
| --- | --- | --- |
| Cc1cc2[nH]c(-c3n[nH]c4c3C[C@@H]3C[C@]3(C)C4)nc2cc1N(C)C(=O)[C@H](C)C1CCOCC1 [Example 4, (R)—N-methyl-N-(6-methyl-2-((4aS,5aR)-5a-methyl-1,4,4a,5,5a,6-hexahydrocyclopropa[f]indazol-3-yl)-1H-benzo[d]imidazol-5-yl)-2-(tetrahydro-2H-pyran-4-yl)propanamide] | 95 | 0.022 |
| Cc1cc2[nH]c(-c3n[nH]c4c3C[C@@H]3C[C@]3(C)C4)nc2cc1N(C)C(=O)C(C)C1CCOCC1 (stereo partly drawn) [Example 5, N-methyl-N-(6-methyl-2-((4aS,5aR)-5a-methyl-1,4,4a,5,5a,6-hexahydrocyclopropa[f]indazol-3-yl)-1H-benzo[d]imidazol-5-yl)-2-(tetrahydro-2H-pyran-4-yl)propanamide] | – | 0.027 |
| C[C@@H](C(=O)N(C)c1ccc2[nH]c(-c3n[nH]c4c3C[C@@H]3C[C@]3(C)C4)nc2c1)C1CCOCC1 [Example 7, (R)—N-methyl-N-(2-((4aS,5aR)-5a-methyl-1,4,4a,5,5a,6-hexahydrocyclopropa[f]indazol-3-yl)-1H-benzo[d]imidazol-5-yl)-2-(tetrahydro-2H-pyran-4-yl)propanamide] | – | 0.013 |
| CC(C(=O)N(C)c1ccc2[nH]c(-c3n[nH]c4c3C[C@@H]3C[C@]3(C)C4)nc2c1)C1CCOCC1 (stereo partly drawn) [Example 8, N-methyl-N-(2-((4aS,5aR)-5a-methyl-1,4,4a,5,5a,6-hexahydrocyclopropa[f]indazol-3-yl)-1H-benzo[d]imidazol-5-yl)-2-(tetrahydro-2H-pyran-4-yl)propanamide] | – | 0.026 |
| C[C@H](C(=O)N(C)c1ccc2[nH]c(-c3n[nH]c4c3C[C@@H]3C[C@]3(C)C4)nc2c1)C1CCOCC1 [Example 9, (S)—N-methyl-N-(2-((4aS,5aR)-5a-methyl-1,4,4a,5,5a,6-hexahydrocyclopropa[f]indazol-3-yl)-1H-benzo[d]imidazol-5-yl)-2-(tetrahydro-2H-pyran-4-yl)propanamide] | – | 0.099 |
| CN(C(=O)C(F)(F)C1CCOCC1)c1ccc2[nH]c(-c3n[nH]c4c3C[C@@H]3C[C@]3(C)C4)nc2c1 [Example 11, 2,2-difluoro-N-methyl-N-(2-((4aS,5aR)-5a-methyl-1,4,4a,5,5a,6-hexahydrocyclopropa[f]indazol-3-yl)-1H-benzo[d]imidazol-5-yl)-2-(tetrahydro-2H-pyran-4-yl)acetamide] | – | 0.034 |
| C[C@@H](C(=O)N(C)c1cc2nc(-c3n[nH]c4c3C[C@@H]3C[C@]3(C)C4)[nH]c2cc1F)N1CCOCC1 [Example 17, (S)—N-(6-fluoro-2-((4aS,5aR)-5a-methyl-1,4,4a,5,5a,6-hexahydrocyclopropa[f]indazol-3-yl)-1H-benzo[d]imidazol-5-yl)-N-methyl-2-morpholinopropanamide] | – | 0.045 |
| CCc1cc2[nH]c(-c3n[nH]c4c3C[C@@H]3C[C@]3(C)C4)nc2cc1N(C)C(=O)[C@H](C)N1CCOCC1 [Example 18, (S)—N-(6-ethyl-2-((4aS,5aR)-5a-methyl-1,4,4a,5,5a,6-hexahydrocyclopropa[f]indazol-3-yl)-1H-benzo[d]imidazol-5-yl)-N-methyl-2-morpholinopropanamide] | – | 0.091 |
| C[C@@H](C(=O)N(C)c1cc(F)c2[nH]c(-c3n[nH]c4c3C[C@@H]3C[C@]3(C)C4)nc2c1)N1CCOCC1=O [Example 22, (S)—N-(7-fluoro-2-((4aS,5aR)-5a-methyl-1,4,4a,5,5a,6-hexahydrocyclopropa[f]indazol-3-yl)-1H-benzo[d]imidazol-5-yl)-N-methyl-2-(3-oxomorpholino)propanamide] | – | 0.34 |
| C[C@H](C(=O)N(C)c1cc(F)c2[nH]c(-c3n[nH]c4c3C[C@@H]3C[C@]3(C)C4)nc2c1)N1CCOCC1=O [Example 23, (R)—N-(7-fluoro-2-((4aS,5aR)-5a-methyl-1,4,4a,5,5a,6-hexahydrocyclopropa[f]indazol-3-yl)-1H-benzo[d]imidazol-5-yl)-N-methyl-2-(3-oxomorpholino)propanamide] | – | 0.304 |
| Cc1cc2[nH]c(-c3n[nH]c4c3C[C@@H]3C[C@]3(C)C4)nc2cc1N(C)C(=O)CN1CCOC(CO)C1 (stereo partly drawn) [Example 27, 2-(2-(Hydroxymethyl)morpholino)-N-methyl-N-(6-methyl-2-((4aS,5aR)-5a-methyl-1,4,4a,5,5a,6-hexahydrocyclopropa[f]indazol-3-yl)-1H-benzo[d]imidazol-5-yl)acetamide] | – | 0.289 |
| Cc1cc2[nH]c(-c3n[nH]c4c3C[C@@H]3C[C@]3(C)C4)nc2cc1N(C)C(=O)CN1CCO[C@@H](CO)C1 [Example 28, 2-((R)-2-(Hydroxymethyl)morpholino)-N-methyl-N-(6-methyl-2-((4aS,5aR)-5a-methyl-1,4,4a,5,5a,6-hexahydrocyclopropa[f]indazol-3-yl)-1H-benzo[d]imidazol-5-yl)acetamide] | – | 0.305 |
| Cc1cc2[nH]c(-c3n[nH]c4c3C[C@@H]3C[C@]3(C)C4)nc2cc1N(C)C(=O)CN1CCOC(C)(C)C1 [Example 29, 2-(2,2-Dimethylmorpholino)-N-methyl-N-(6-methyl-2-((4aS,5aR)-5a-methyl-1,4,4a,5,5a,6-hexahydrocyclopropa[f]indazol-3-yl)-1H-benzo[d]imidazol-5-yl)acetamide] | – | 0.058 |
| Cc1cc2[nH]c(-c3n[nH]c4c3C[C@@H]3C[C@]3(C)C4)nc2cc1N(C)C(=O)CN1CCO[C@H](C)C1 [Example 30, N-Methyl-N-(6-methyl-2-((4aS,5aR)-5a-methyl-1,4,4a,5,5a,6-hexahydrocyclopropa[f]indazol-3-yl)-1H-benzo[d]imidazol-5-yl)-2-((R)-2-methylmorpholino)acetamide] | – | 0.082 |
| Cc1cc2[nH]c(-c3n[nH]c4c3C[C@@H]3C[C@]3(C)C4)nc2cc1N(C)C(=O)CN1C[C@H](C)O[C@@H](C)C1 [Example 33, 2-((2S,6S)-2,6-Dimethylmorpholino)-N-methyl-N-(6-methyl-2-((4aS,5aR)-5a-methyl-1,4,4a,5,5a,6-hexahydrocyclopropa[f]indazol-3-yl)-1H-benzo[d]imidazol-5-yl)acetamide] | – | 0.068 |
| Cc1cc2[nH]c(-c3n[nH]c4c3C[C@@H]3C[C@]3(C)C4)nc2cc1N(C)C(=O)CC1CCOCC1 [Example 35, N-Methyl-N-(6-methyl-2-((4aS,5aR)-5a-methyl-1,4,4a,5,5a,6-hexahydrocyclopropa[f]indazol-3-yl)-1H-benzo[d]imidazol-5-yl)-2-(tetrahydro-2H-pyran-4-yl)acetamide] | – | 0.05 |
| Cc1cc2[nH]c(-c3n[nH]c4c3C[C@@H]3C[C@]3(C)C4)nc2cc1N(C)C(=O)CN1CCOCC1=O [Example 36, N-Methyl-N-(6-methyl-2-((4aS,5aR)-5a-methyl-1,4,4a,5,5a,6-hexahydrocyclopropa[f]indazol-3-yl)-1H-benzo[d]imidazol-5-yl)-2-(3-oxomorpholino)acetamide] | – | 0.096 |
| C[C@@H](C(=O)N(C)c1cc(O)c2[nH]c(-c3n[nH]c4c3C[C@@H]3C[C@]3(C)C4)nc2c1)N1CCOCC1 [Example 39, (S)—N-(7-hydroxy-2-((4aS,5aR)-5a-methyl-1,4,4a,5,5a,6-hexahydrocyclopropa[f]indazol-3-yl)-1H-benzo[d]imidazol-5-yl)-N-methyl-2-morpholinopropanamide] | – | 0.082 |
| Cc1c(N(C)C(=O)[C@H](C)N2CCOCC2)cc2nc(-c3n[nH]c4c3C[C@@H]3C[C@]3(C)C4)[nH]c2c1F [Example 46, (S)—N-(7-fluoro-6-methyl-2-((4aS,5aR)-5a-methyl-1,4,4a,5,5a,6-hexahydrocyclopropa[f]indazol-3-yl)-1H-benzo[d]imidazol-5-yl)-N-methyl-2-morpholinopropanamide] | – | 0.047 |
| Cc1cc2[nH]c(-c3n[nH]c4c3C[C@@H]3C(F)(F)[C@]3(C)C4)nc2cc1N(C)C(=O)[C@H](C)N1CCOCC1 [Example 53, (S)—N-(2-((4aS,5aR)-5,5-difluoro-5a-methyl-1,4,4a,5,5a,6-hexahydrocyclopropa[f]indazol-3-yl)-5-methyl-1H-benzo[d]imidazol-6-yl)-N-methyl-2-morpholinopropanamide] | – | 0.01 |
| CN(C(=O)CC1CCOCC1)c1cc2nc(-c3n[nH]c4c3C[C@@H]3C[C@]3(C)C4)[nH]c2cc1C#N [Example 54, N-(6-cyano-2-((4aS,5aR)-5a-methyl-1,4,4a,5,5a,6-hexahydrocyclopropa[f]indazol-3-yl)-1H-benzo[d]imidazol-5-yl)-N-methyl-2-(tetrahydro-2H-pyran-4-yl)acetamide] | – | 4.57 |
